This test deals with T1, Histidine-binding periplasmic protein [1-238] (Escherichia coli (strain 55989 / EAEC), UniProt P0AEU0).
T1 construct: 1-238
T1 sequence (P0AEU0 whole entry): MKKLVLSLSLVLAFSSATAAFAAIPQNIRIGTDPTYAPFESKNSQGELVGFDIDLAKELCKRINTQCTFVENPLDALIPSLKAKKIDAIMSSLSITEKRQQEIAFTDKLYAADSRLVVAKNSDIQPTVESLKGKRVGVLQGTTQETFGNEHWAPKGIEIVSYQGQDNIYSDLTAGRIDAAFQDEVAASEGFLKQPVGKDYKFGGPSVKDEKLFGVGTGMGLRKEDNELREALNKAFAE
The experiment in a line: Isothermal Titration Calorimetry (ITC). The note with it: pH 7; 30 °C. The procedure:
All ITC experiments were performed using a Microcal VP-ITC microcalorimeter (GE Healthcare). All samples were prepared in a buffer containing 20 mM HEPES (pH 7.0) and 100 mM NaCl. The syringe was filled with 0.5 mM histidine that was injected into the ITC cell containing 20 μM protein (D1, D2, or HisJ) solution at 30 °C.

The structures appear in SMILES notation.

Usually Kd stands for the equilibrium constant for the complex coming apart. Low readings indicate a tighter complex, high ones a looser complex.

Consider `N[C@@H](Cc1c[nH]cn1)C(=O)O` [L-2-Amino-3-(4-imidazolyl)propionic acid], for which the dissociation constant (Kd) came to 114 nM.

Source of the values: BindingDB's records for doi:10.1074/jbc.M113.490441 (University of Calgary, 2013).
